Reference: patent US20090318456A1, “SUBSTITUTED PTERIDINES FOR THE TREATMENT AND PREVENTION OF VIRAL INFECTIONS” (Gilead Sciences, Inc., priority 2006, published 2009)
Read-outs that look alike come from different tables or passages of the source.

Legend:
[1] = CC50 assay (CellTiter-Glo) in Huh-7 HCV replicon cells; type: cell-based, human; conditions: human
Procedure: (§1) The anti HCV activity of specifically 2,4,6-trisubstituted pteridine derivatives was tested in a human hepatoma Huh-7 cell line harbouring a HCV replicon. The assay comprised the following steps:
(§2) Step 1: compound preparation and serial dilution involved the following alternatives, depending upon the water solubility of pteridine derivative being tested: • 1. with respect to water soluble 2,4,6-trisubstituted pteridine derivatives, 500 μL of solution in cell media (DMEM, 10% FBS, P/S, L-Glutamine) was prepared with a concentration that is twice the concentration of the starting final serial dilution concentration. 150 μL of the solution was added to the pre-specified wells in column 1 of a 96-well cell culture plate (PerkinElmer, white plate, cat. #6005181, for EC50 assay; black plate, cat. #6005182 for CC50 assay). The rest of the plate, i.e. columns 2-12, was filled with 100 μL of cell media. The plate was then placed on a Precision 2000 Workstation in order to start serial dilution. Pteridine compounds were diluted three times each step from column 1 to column 10. Column 11 was used as a blank control (no pteridine compound added). • 2. With respect to poorly water soluble pteridine derivatives, DMSO was used as a solvent, and serial dilution was performed in 50% DMSO in water, in a 384-well plate. A solution containing the relevant compound at 100-fold the concentration of the starting final serial dilution concentration was prepared in 50% DMSO in water and added to the pre-specified wells in column 1 of a polypropylene 384-well plate. This plate was then placed on a Precision 2000 Workstation in order to start serial dilution. After serial dilution, 2 μL of the solution was transferred from the 384-well plate to a 96-well cell culture plate containing 100 μL of cell media on a Biomek FX Workstation. The DMSO concentration in the final assay condition was 0.5% after cells have been added to the plate and the total volume in each well was brought to 200 μL. Step 2: to each well of the serial dilution plate prepared in step 1, 100 μL of cell media containing 6000 suspended Huh-7 HCV replicon cells was added with a Multidrop workstation. Plates were incubated for 3 days at 37° C. with 5% CO2. Step 3: detection: • 1) with respect to the EC50 assay, the media in a 96-well cell culture plate was aspirated with a Biotek EL405 plate-washer. A volume of 200 μL of a solution containing a 1:1 mixture of a cell-lysis buffer (commercially available from Promega, Luciferase Cell Culture Lysis 5× Reagent, cat. #E1531) and a luciferase substrate solution (commercially available from Promega, Luciferase Assay, cat. # E4550) was added to each well of the plate with Multidrop. The plate was incubated for 30 minutes at room temperature before the luminescence signal was measured with a TopCount plate-reader. • 2) with respect to the CC50 assay, 100 μL of a pre-mixed CellTiter-Glo (commercially available from Promega, cat. # G7572) solution was added directly to the cell culture in each well of the plate and the luminescence signal was measured with a TopCount plate-reader after 10 minutes of incubation at room temperature.
(§3) Results are expressed by the following data: • the 50% effective concentration (EC50), i.e. the concentration that protects 50% of the cell monolayer from virus-induced cythopathic effect, and • the 50% cytostatic concentration (CC50), i.e. the concentration that results in 50% inhibition of cell growth.

HCV replicon = test: Anti-HCV replicon assay (EC50, luciferase); type: cell-based, Hepatitis C virus (HCV)
Procedure: as §1, §2, §3

Huh-7 HCV replicon cells = test: CC50 assay (CellTiter-Glo) in Huh-7 HCV replicon cells; type: cell-based, human
Procedure: as §1, §2, §3

HIV IIIb strain = test: Anti-HIV assay in MT-4 cells; type: cell-based; conditions: MT-4 cells infected with HIV IIIb, 5 days, CellTiter-Glo
Procedure: The anti HIV activity of some of the pteridine compounds listed in example C was tested in MT-4 cells infected with HIV IIIb strain. The assay comprised the following steps: • Step 1 (sample preparation). The compound stock solutions as prepared for Example C were diluted in MT4 cell media at a concentration equal to twice the concentration of the HCV EC50 or CC50 (the highest concentration of the two was chosen) obtained in Example C. To pre-defined wells of a 384-well black cell culture plate (NUNC), a volume of 50 μL of the compound solution is added. Serial dilution is performed by the workstation across the plate. Each compound is serially diluted 5-fold in each step, for a total of 6 steps (7 total concentrations). Compounds are tested in triplicates within each plate. Negative control was performed using 40 μL cell media only. At the end of the serial dilution, each well on the plate contained 40 μL of media containing different concentrations of compounds. A volume of 20 μL was transferred to a new plate to duplicate the plate. • step 2 (starting the assay): the plates are transferred into the HIV laboratory. To each plate, a volume of 20 μL MT-4 cell suspension (10^5 cells/mL) is dispensed into each well of the plate with the Multidrop dispenser. The HIV IIIb stock solution was diluted 1 to 500 in cell media (2 μL of virus+998 μL of media). 100-120 μL of diluted virus was then added to 10 ml cell suspension (containing 106 MT-4 cells). 20 μL of this cell suspension/virus was dispensed to each well of the plates with the Multidrop dispenser. The plates were incubated at 37° C. for 5 days in the cell culture incubator in the HIV laboratory. • step 3 (detection): on day 5, 40 μL of the pre-prepared CellTiter-Glo reagent was added to each well of the plates using the Multidrop dispenser. The plates were incubated at room temperature for 10 minutes to stabilize the luminescence signal. The luminescence was measured on the Victor 2 plate reader with an integration time of 0.25-1 seconds per sample. […] It is clear from the table that none of the pteridine compounds tested is active against HIV.

[2] = Table 2, Huh-7 HCV replicon cells, 3 days, luciferase, read-out: EC50
[3] = Hepatitis C virus, 72 h, Table 4, Huh-7 HCV replicon cells, 3 days, luciferase, read-out: EC50
[4] = Table 3, Huh-7 HCV replicon cells, 3 days, luciferase, read-out: EC50
[5] = Table 1, Huh-7 HCV replicon cells, 3 days, luciferase, read-out: EC50

NS(=O)(=O)c1ccc(CNc2nc(NCC(F)(F)F)c3nc(-c4ccc(F)cc4)cnc3n2)cc1 [Example D, 4-{[6-(4-fluoro-phenyl)-4-(2,2,2-trifluoro-ethylamino)-pteridin-2-ylamino]-methyl}-benzenesulfonamide]
CC50 at 3 days ([1]; Table 4): > 20 µM
EC50 (HCV replicon; Hepatitis C virus, Huh-7, 72 h): < 0.3 µM

CC(C)Oc1nc(N)nc2ncc(-c3ccc(F)cc3)nc12 [2-amino-4-isopropoxy-6-(4-fluorophenyl)-pteridine]
CC50 at 3 days ([1]; Table 6): > 20 µM
EC50 (HCV replicon; Hepatitis C virus, 72 h, Table 6, Huh-7 HCV replicon cells, 3 days, luciferase, read-out: EC50): < 0.3 µM

CCOc1nc(N)nc2ncc(-c3ccc(OC)c(OC)c3)nc12 [Example 134]
CC50 (Huh-7 HCV replicon cells; Table 2, 3 days): > 20 µM
EC50 (HIV IIIb strain): > 100 µM
EC50 (HCV replicon; [2]): < 0.3 µM

CCOc1nc(NCc2ccc(F)cc2)nc2ncc(-c3ccc(F)cc3)nc12 [Example C]
CC50 at 3 days ([1]; Table 4): > 20 µM
EC50 (HCV replicon; Hepatitis C virus, Huh-7, 72 h): < 0.3 µM

CCOc1nc(NCc2ccc(S(N)(=O)=O)cc2)nc2ncc(-c3ccc(F)cc3)nc12 [Example G, 4-{[4-Ethoxy-6-(4-fluoro-phenyl)-pteridin-2-ylamino]-methyl}-benzenesulfonamide]
CC50 at 3 days ([1]; Table 4): > 20 µM
EC50 (HCV replicon; [3]): < 0.3 µM

CCOc1nc(N)nc2ncc(-c3ccc(F)cc3)nc12 [Example 131, 2-amino-4-ethoxy-6-(4-fluorophenyl)-pteridine]
CC50 at 3 days ([1]; Table 2): > 20 µM
EC50 (HCV replicon; Hepatitis C virus, 72 h, Table 2, Huh-7 HCV replicon cells, 3 days, luciferase, read-out: EC50): < 0.3 µM

NS(=O)(=O)c1ccc(CNc2nc(NCC(F)(F)F)c3nc(-c4ccc(F)c(Cl)c4)cnc3n2)cc1 [Example I, 4-{[6-(3-Chloro-4-fluoro-phenyl)-4-(2,2,2-trifluoro-ethylamino)-pteridin-2-ylamino]-methyl}-benzenesulfonamide]
CC50 at 3 days ([1]; Table 4): 10 to 20 µM
EC50 (HCV replicon; Hepatitis C virus, Huh-7, 72 h): 0.3 to 1 µM

CCC(=O)Nc1ccc(-c2cnc3nc(N)nc(N4CCOCC4)c3n2)cc1 [Example 216]
CC50 (Huh-7 HCV replicon cells; Table 3, 3 days): > 20 µM
EC50 (HIV IIIb strain): > 100 µM
EC50 (HCV replicon; [4]): 0.3 to 1 µM

Fc1ccc(CNc2nc(NCC(F)(F)F)c3nc(-c4ccc(F)cc4)cnc3n2)cc1 [Example E, N2-(4-Fluoro-benzyl)-6-(4-fluoro-phenyl)-N4-(2,2,2-trifluoro-ethyl)-pteridine-2,4-diamine]
CC50 at 3 days ([1]; Table 4): < 10 µM
EC50 (HCV replicon; [3]): < 0.3 µM

NS(=O)(=O)c1ccc(CNc2nc(NCC(F)(F)F)c3nc(-c4ccc(C(=O)NC5CC5)cc4)cnc3n2)cc1 [Example H, N-Cyclopropyl-4-[2-(4-sulfamoyl-benzylamino)-4-(2,2,2-trifluoro-ethylamino)-pteridin-6-yl]-benzamide]
CC50 at 3 days ([1]; Table 4): > 20 µM
EC50 (HCV replicon; Hepatitis C virus, Huh-7, 72 h): 0.3 to 1 µM

COc1ccc(-c2cnc3nc(N)nc(N4CCN(C)CC4)c3n2)cc1OC [Example 181]
CC50 (Huh-7 HCV replicon cells; Table 2, 3 days): 10 to 20 µM
EC50 (HIV IIIb strain): > 100 µM
EC50 (HCV replicon; [2]): < 0.3 µM

COc1ccc(-c2cnc3nc(N)nc(N4CCN(C(C)c5ccccc5)CC4)c3n2)cc1OC (centres unmarked) [Example 73]
CC50 (Huh-7 HCV replicon cells; Table 1, 3 days): < 10 µM
EC50 (HCV replicon; [5]): < 0.3 µM

COc1ccc(-c2cnc3nc(N)nc(N4CCN(C(=O)Nc5ccc(Br)cc5)CC4)c3n2)cc1OC [Example 124, 2-amino-4-(N-4-bromo-phenyl-carbamoyl-piperazin-1-yl)-6-(3,4-dimethoxyphenyl)pteridine]
CC50 (Huh-7 HCV replicon cells; Table 1, 3 days): < 10 µM
EC50 (HCV replicon; [5]): < 0.3 µM

COCCOC(=O)N1CCN(c2nc(N)nc3ncc(-c4ccc(OC)c(OC)c4)nc23)CC1 [Example 65]
CC50 (Huh-7 HCV replicon cells; Table 1, 3 days): 10 to 20 µM
EC50 (HCV replicon; [5]): < 0.3 µM

CCS(=O)(=O)Nc1cccc(-c2cnc3nc(N)nc(N4CCOCC4)c3n2)c1 [Example 201]
CC50 (Huh-7 HCV replicon cells; Table 3, 3 days): > 20 µM
EC50 (HIV IIIb strain): 17.8 µM
EC50 (HCV replicon; [4]): 0.3 to 1 µM

COc1ccc(-c2cnc3nc(N)nc(N4CCN(C(=O)c5cc(F)c(Cl)nc5Cl)CC4)c3n2)cc1OC [Example 31]
CC50 (Huh-7 HCV replicon cells; Table 1, 3 days): < 10 µM
EC50 (HCV replicon; [5]): < 0.3 µM

COc1ccc(-c2cnc3nc(N)nc(N4CCN(C(=O)Nc5cccc(C)c5)CC4)c3n2)cc1OC [Example 3]
CC50 (Huh-7 HCV replicon cells; Table 1, 3 days): < 10 µM
EC50 (HCV replicon; [5]): < 0.3 µM

COc1ccc(-c2cnc3nc(N)nc(N4CCN(C(=O)c5ccncc5)CC4)c3n2)cc1OC [Example 22]
CC50 (Huh-7 HCV replicon cells; Table 1, 3 days): 10 to 20 µM
EC50 (HCV replicon; [5]): < 0.3 µM

COc1ccc(-c2cnc3nc(N)nc(N4CCN(S(=O)(=O)Cc5ccccc5)CC4)c3n2)cc1OC [Example 34]
CC50 (Huh-7 HCV replicon cells; Table 1, 3 days): > 20 µM
EC50 (HCV replicon; [5]): < 0.3 µM

COc1ccc(-c2cnc3nc(N)nc(N4CCN(C(=O)Oc5ccc(C)cc5)CC4)c3n2)cc1OC [Example 59]
CC50 (Huh-7 HCV replicon cells; Table 1, 3 days): < 10 µM
EC50 (HCV replicon; [5]): < 0.3 µM

COc1ccc(-c2cnc3nc(N)nc(N4CCN(C(=O)Cc5cccs5)CC4)c3n2)cc1OC [Example 27]
CC50 (Huh-7 HCV replicon cells; Table 1, 3 days): < 10 µM
EC50 (HCV replicon; [5]): < 0.3 µM

CC(Nc1nc(NCC(F)(F)F)c2nc(-c3ccc(F)cc3)cnc2n1)c1ccc(S(N)(=O)=O)cc1 (centres unmarked) [Example F, 4-{1-[6-(4-Fluoro-phenyl)-4-(2,2,2-trifluoro-ethylamino)-pteridin-2-ylamino]-ethyl}-benzenesulfonamide]
CC50 at 3 days ([1]; Table 4): < 10 µM
EC50 (HCV replicon; [3]): < 0.3 µM

COc1ccc(-c2cnc3nc(N)nc(N4CCN(C(=O)/C=C/c5ccccc5)CC4)c3n2)cc1OC [Example 28]
CC50 (Huh-7 HCV replicon cells; Table 1, 3 days): < 10 µM
EC50 (HCV replicon; [5]): < 0.3 µM

COc1ccc(-c2cnc3nc(N)nc(N4CCN(C(=O)Nc5ccc(F)c(Cl)c5)CC4)c3n2)cc1OC [Example 113]
CC50 (Huh-7 HCV replicon cells; Table 1, 3 days): < 10 µM
EC50 (HCV replicon; [5]): < 0.3 µM

COc1ccc(-c2cnc3nc(N)nc(N4CCN(Cc5ccccn5)CC4)c3n2)cc1OC [Example 99]
CC50 (Huh-7 HCV replicon cells; Table 1, 3 days): 10 to 20 µM
EC50 (HCV replicon; [5]): 0.3 to 1 µM

COc1ccc(-c2cnc3nc(N)nc(N4CCOCC4)c3n2)cc1OC [Example 158]
CC50 (Huh-7 HCV replicon cells; Table 2, 3 days): 10 to 20 µM
EC50 (HIV IIIb strain): > 100 µM
EC50 (HCV replicon; [2]): < 0.3 µM

COc1ccc(-c2cnc3nc(N)nc(N4CCN(Cc5ccc(C)cc5)CC4)c3n2)cc1OC [Example 52]
CC50 (Huh-7 HCV replicon cells; Table 1, 3 days): > 20 µM
EC50 (HCV replicon; [5]): 0.3 to 1 µM
